Assays:
Assay in all cases: relative viability (nuclei count vs DMSO), 5 days (fraction); higher = more cells survive
KN-93 + Bortezomib = compound: CN(C/C=C/C1=CC=C(C=C1)Cl)CC2=CC=CC=C2N(CCO)S(=O)(=O)C3=CC=C(C=C3)OC [KN-93] + CC(C)C[C@H](NC(=O)[C@H](Cc1ccccc1)NC(=O)c1cnccn1)B(O)O [Bortezomib] (partner 0.002 µM)
In short: (§1)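 Medians of duplicate plates are given as relative viability. That measure is the nuclei count in treated wells divided by the count in vehicle wells. Counts were taken on 4× images of lung cancer cell lines in 1536-well plates, 5 days after pin-tool dosing the day after seeding with one drug alone or a fixed anchor-drug dose plus five library-drug doses (not always all listed) in √10 steps.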

KN-93 + Linsitinib = compound: CN(C/C=C/C1=CC=C(C=C1)Cl)CC2=CC=CC=C2N(CCO)S(=O)(=O)C3=CC=C(C=C3)OC [KN-93] + C[C@]1(O)C[C@@H](c2nc(-c3ccc4ccc(-c5ccccc5)nc4c3)c3c(N)nccn32)C1 [Linsitinib] (partner 1 µM)
In short: as §1

KN-93 + Tozasertib = compound: CN(C/C=C/C1=CC=C(C=C1)Cl)CC2=CC=CC=C2N(CCO)S(=O)(=O)C3=CC=C(C=C3)OC [KN-93] + Cc1cc(Nc2cc(N3CCN(C)CC3)nc(Sc3ccc(NC(=O)C4CC4)cc3)n2)n[nH]1 [Tozasertib] (partner 0.1 µM)
In short: as §1

KN-93 + Phenformin = compound: CN(C/C=C/C1=CC=C(C=C1)Cl)CC2=CC=CC=C2N(CCO)S(=O)(=O)C3=CC=C(C=C3)OC [KN-93] + N=C(N)NC(=N)NCCc1ccccc1 [Phenformin] (partner 250 µM)
In short: as §1

KN-93 + Pemetrexed = compound: CN(C/C=C/C1=CC=C(C=C1)Cl)CC2=CC=CC=C2N(CCO)S(=O)(=O)C3=CC=C(C=C3)OC [KN-93] + Nc1nc2[nH]cc(CCc3ccc(C(=O)N[C@@H](CCC(=O)O)C(=O)O)cc3)c2c(=O)[nH]1 [Pemetrexed] (partner 0.2 µM)
In short: as §1

| Cell Line | relative viability (KN-93 + Bortezomib; first compound 0.08 µM) | relative viability (KN-93 + Bortezomib; first compound 0.253 µM) | relative viability (KN-93 + Bortezomib; first compound 2.53 µM) | relative viability (KN-93 + Bortezomib; first compound 8 µM) | relative viability (KN-93 + Linsitinib; first compound 0.08 µM) | relative viability (KN-93 + Linsitinib; first compound 0.253 µM) | relative viability (KN-93 + Linsitinib; first compound 2.53 µM) | relative viability (KN-93 + Linsitinib; first compound 8 µM) | relative viability (KN-93 + Tozasertib; first compound 0.08 µM) | relative viability (KN-93 + Tozasertib; first compound 0.253 µM) | relative viability (KN-93 + Tozasertib; first compound 2.53 µM) | relative viability (KN-93 + Tozasertib; first compound 8 µM) | relative viability (KN-93 + Phenformin; first compound 0.08 µM) | relative viability (KN-93 + Phenformin; first compound 0.253 µM) | relative viability (KN-93 + Phenformin; first compound 2.53 µM) | relative viability (KN-93 + Phenformin; first compound 8 µM) | relative viability (KN-93 + Pemetrexed; first compound 0.08 µM) | relative viability (KN-93 + Pemetrexed; first compound 0.253 µM) | relative viability (KN-93 + Pemetrexed; first compound 2.53 µM) | relative viability (KN-93 + Pemetrexed; first compound 8 µM) |
| --- | --- | --- | --- | --- | --- | --- | --- | --- | --- | --- | --- | --- | --- | --- | --- | --- | --- | --- | --- | --- |
| NCI-H2347 | 1.27 | 0.741 | 0.828 | 0.745 | 1.07 | 0.922 | 0.918 | 0.797 | 0.587 | 0.55 | 0.618 | 0.505 | 0.517 | 0.376 | 0.55 | 0.362 | 0.376 | 0.473 | 0.45 | 0.549 |
| NCI-H2228 | 1.01 | 1.18 | 1.14 | 0.817 | 0.581 | 0.517 | 0.63 | 0.314 | 0.274 | 0.166 | 0.243 | 0.154 | 0.229 | 0.347 | 0.412 | 0.325 | 0.407 | 0.383 | 0.353 | 0.252 |
| CAL-12T | 1.02 | 1.09 | 0.993 | 0.803 | 0.926 | 0.766 | 0.694 | 0.729 | 0.299 | 0.354 | 0.324 | 0.176 | 0.557 | 0.474 | 0.563 | 0.407 | 1.08 | 1.25 | 0.93 | 1.01 |
| PC-3 [JPC-3] | 0.724 | 0.97 | 0.982 | 0.579 | 1.02 | 1.02 | 0.995 | 0.876 | 0.905 | 0.957 | 0.922 | 0.813 | 0.437 | 0.46 | 0.494 | 0.441 | 1.15 | 1.37 | 0.898 | 0.858 |
| LOU-NH91 | 0.534 | 0.456 | 0.48 | 0.392 | 0.926 | 0.856 | 0.931 | 0.791 | 0.618 | 0.663 | 0.586 | 0.477 | 0.667 | 0.614 | 0.8 | 0.628 | 0.356 | 0.325 | 0.445 | 0.439 |
| BEN |  | 0.895 | 1.01 | 0.471 |  | 1.31 | 1.03 | 0.786 | 0.525 | 0.529 | 0.489 | 0.531 | 0.239 | 0.26 | 0.295 | 0.275 | 0.886 | 0.829 | 0.913 | 0.54 |
| NCI-H2405 | 1.01 | 0.978 | 1.09 | 0.728 | 0.984 | 0.908 | 0.924 | 0.564 | 0.799 | 0.776 | 0.733 | 0.533 | 0.379 | 0.479 | 0.718 | 0.354 | 1.06 | 1.24 | 1.02 | 0.775 |
| NCI-H2009 | 1.05 | 0.995 | 0.84 | 0.462 | 1.16 | 1.24 | 1.17 | 0.94 | 0.689 | 0.764 | 0.692 | 0.493 | 0.426 | 0.557 | 0.492 | 0.317 | 1.01 | 1.07 | 1.1 | 0.796 |

Reference: the supplement of paper PMC10307832
